Laboratory results: US20260285850A1, “SUBSTITUTED OXAZOLIDINONES AND IMIDAZOLINONES AS HERBICIDES” (FMC CORPORATION, priority 2023, published 2026)

Assays:
Type in all cases: in vivo
[1] = tested on: barnyardgrass (Echinochloa crus-galli); assay: Test A preemergence soil spray, visual injury rating 0-100; details: 10 days, 0 = no effect, 100 = complete control
Outline: (§1)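 Plants in a loam and sand soil blend were treated with each test chemical, in a non-phytotoxic solvent system including surfactant, either sprayed on seeded soil before emergence or applied after emergence at the one- to two-leaf stage. Ten days later in the greenhouse, plants were compared with untreated controls and visually rated from 0 (no effect) to 100 (complete control).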

[2] = tested on: blackgrass (Alopecurus myosuroides); assay: as above; details: 10 days, 0 = no effect, 100 = complete control
Outline: as §1

corn (Zea mays) [3] = assay: as above; details: 10 days, 0 = no effect, 100 = complete control
Outline: as §1

[4] = tested on: green foxtail (Setaria viridis); assay: as above; details: 10 days, 0 = no effect, 100 = complete control
Outline: as §1

kochia (Bassia scoparia) [5] = assay: as above; details: 10 days, 0 = no effect, 100 = complete control
Outline: as §1

[6] = tested on: oat, wild (wild oat, Avena fatua); assay: as above; details: 10 days, 0 = no effect, 100 = complete control
Outline: as §1

[7] = tested on: palmer (palmer amaranth, palmer pigweed, Amaranthus palmeri); assay: as above; details: 10 days, 0 = no effect, 100 = complete control
Outline: as §1

[8] = tested on: ragweed (common ragweed, Ambrosia artemisiifolia); assay: as above; details: 10 days, 0 = no effect, 100 = complete control
Outline: as §1

[9] = tested on: ryegrass, Italian (italian ryegrass, Lolium multiflorum); assay: as above; details: 10 days, 0 = no effect, 100 = complete control
Outline: as §1

soybean (Glycine max) [10] = assay: as above; details: 10 days, 0 = no effect, 100 = complete control
Outline: as §1

[11] = tested on: wheat (Triticum aestivum); assay: as above; details: 10 days, 0 = no effect, 100 = complete control
Outline: as §1

[12] = tested on: barnyardgrass (Echinochloa crus-galli); assay: Test A postemergence application, visual injury rating 0-100; details: Postemergence, 10 days, 0 is no effect, 100 is complete control
Outline: as §1

[13] = tested on: blackgrass (Alopecurus myosuroides); assay: as above; details: Postemergence, 10 days, 0 is no effect, 100 is complete control
Outline: as §1

corn (Zea mays) [14] = assay: as above; details: Postemergence, 10 days, 0 is no effect, 100 is complete control
Outline: as §1

[15] = tested on: galium (catchweed bedstraw, Galium aparine); assay: as above; details: Postemergence, 10 days, 0 is no effect, 100 is complete control
Outline: as §1

[16] = tested on: green foxtail (Setaria viridis); assay: as above; details: Postemergence, 10 days, 0 is no effect, 100 is complete control
Outline: as §1

[17] = tested on: horseweed (Erigeron canadensis); assay: as above; details: Postemergence, 10 days, 0 is no effect, 100 is complete control
Outline: as §1

kochia (Bassia scoparia) [18] = assay: as above; details: Postemergence, 10 days, 0 is no effect, 100 is complete control
Outline: as §1

[19] = tested on: oat, wild (wild oat, Avena fatua); assay: as above; details: Postemergence, 10 days, 0 is no effect, 100 is complete control
Outline: as §1

[20] = tested on: palmer (palmer amaranth, palmer pigweed, Amaranthus palmeri); assay: as above; details: Postemergence, 10 days, 0 is no effect, 100 is complete control
Outline: as §1

[21] = tested on: ragweed (common ragweed, Ambrosia artemisiifolia); assay: as above; details: Postemergence, 10 days, 0 is no effect, 100 is complete control
Outline: as §1

[22] = tested on: ryegrass, Italian (italian ryegrass, Lolium multiflorum); assay: as above; details: Postemergence, 10 days, 0 is no effect, 100 is complete control
Outline: as §1

soybean (Glycine max) [23] = assay: as above; details: Postemergence, 10 days, 0 is no effect, 100 is complete control
Outline: as §1

[24] = tested on: wheat (Triticum aestivum); assay: as above; details: Postemergence, 10 days, 0 is no effect, 100 is complete control
Outline: as §1

[25] = tested on: barnyardgrass (Echinochloa crusgalli); assay: Test B flooded paddy test, visual plant response rating 0-100; details: 250 g ai/ha, Flood, applied to paddy water, evaluated after 13 days
Outline: (§2)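 Each species was raised to two leaves before flooding to a 3 cm depth and dosing the water with compound. Injury was assessed by eye after 13 days under greenhouse conditions.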

[26] = tested on: ducksalad (Heteranthera limosa); assay: as above; details: 250 g ai/ha, Flood, applied to paddy water, evaluated after 13 days
Outline: as §2

rice (Oryza sativa) = assay: as above; details: 250 g ai/ha, Flood, applied to paddy water, evaluated after 13 days
Outline: as §2

[27] = tested on: sedge, umbrella (small-flower umbrella sedge, Cyperus difformis); assay: as above; details: 250 g ai/ha, Flood, applied to paddy water, evaluated after 13 days
Outline: as §2

CC(C)OC(=O)C1C=CC(NC(=O)C2(C)CN(c3cc(Cl)cc(Cl)c3)C(=O)O2)C1 (stereo not shown) [Compound 43]
20: Plant response rating, Rice (0 to 100 scale, 0 is no effect and 100 is complete control) (rice (Oryza sativa))
40: Soybean plant response rating (0 to 100 scale) (soybean (Glycine max) [10]; 125 g ai/ha)
100: Barnyardgrass plant response rating (0 to 100 scale) ([1]; 125 g ai/ha) | Barnyardgrass plant response rating (0 to 100 scale) ([1]; 500 g ai/ha) | Blackgrass plant response rating (0 to 100 scale) ([2]; 500 g ai/ha) | Foxtail, Green plant response rating (0 to 100 scale) ([4]; 500 g ai/ha) | Amaranth, Palmer plant response rating (0 to 100 scale) ([7]; 125 g ai/ha) | Amaranth, Palmer plant response rating (0 to 100 scale) ([7]; 500 g ai/ha) | Barnyardgrass plant response rating (0 to 100 scale) ([12]; 125 g ai/ha) | Barnyardgrass plant response rating (0 to 100 scale) ([12]; 500 g ai/ha) | Blackgrass plant response rating (0 to 100 scale) ([13]; 125 g ai/ha) | Blackgrass plant response rating (0 to 100 scale) ([13]; 500 g ai/ha) | Corn plant response rating (0 to 100 scale) (corn (Zea mays) [14]; 125 g ai/ha) | Corn plant response rating (0 to 100 scale) (corn (Zea mays) [14]; 500 g ai/ha) | Amaranth, Palmer / Pigweed, Palmer plant response rating (0 to 100 scale) ([20]; 125 g ai/ha) | Amaranth, Palmer / Pigweed, Palmer plant response rating (0 to 100 scale) ([20]; 500 g ai/ha)
90: Blackgrass plant response rating (0 to 100 scale) ([2]; 125 g ai/ha) | Corn plant response rating (0 to 100 scale) (corn (Zea mays) [3]; 500 g ai/ha) | Foxtail, Green plant response rating (0 to 100 scale) ([4]; 125 g ai/ha) | Kochia plant response rating (0 to 100 scale) (kochia (Bassia scoparia) [5]; 500 g ai/ha) | Oat, Wild plant response rating (0 to 100 scale) ([6]; 125 g ai/ha) | Oat, Wild plant response rating (0 to 100 scale) ([6]; 500 g ai/ha) | Ryegrass, Italian plant response rating (0 to 100 scale) ([9]; 125 g ai/ha) | Ryegrass, Italian plant response rating (0 to 100 scale) ([9]; 500 g ai/ha) | Wheat plant response rating (0 to 100 scale) ([11]; 125 g ai/ha) | Wheat plant response rating (0 to 100 scale) ([11]; 500 g ai/ha) | Foxtail, Green plant response rating (0 to 100 scale) ([16]; 125 g ai/ha) | Foxtail, Green plant response rating (0 to 100 scale) ([16]; 500 g ai/ha) | Oat, Wild plant response rating (0 to 100 scale) ([19]; 125 g ai/ha) | Oat, Wild plant response rating (0 to 100 scale) ([19]; 500 g ai/ha) | Ryegrass, Italian plant response rating (0 to 100 scale) ([22]; 125 g ai/ha) | Ryegrass, Italian plant response rating (0 to 100 scale) ([22]; 500 g ai/ha) | Wheat plant response rating (0 to 100 scale) ([24]; 125 g ai/ha) | Wheat plant response rating (0 to 100 scale) ([24]; 500 g ai/ha) | Plant response rating, Ducksalad (0 to 100 scale, 0 is no effect and 100 is complete control) [26]
85: Plant response rating, Barnyardgrass (0 to 100 scale, 0 is no effect and 100 is complete control) [25]
30: Ragweed plant response rating (0 to 100 scale) ([8]; 125 g ai/ha)
95: Plant response rating, Sedge, Umbrella (0 to 100 scale, 0 is no effect and 100 is complete control) [27]
70: Galium plant response rating (0 to 100 scale) ([15]; 125 g ai/ha) | Galium plant response rating (0 to 100 scale) ([15]; 500 g ai/ha)
80: Corn plant response rating (0 to 100 scale) (corn (Zea mays) [3]; 125 g ai/ha) | Kochia plant response rating (0 to 100 scale) (kochia (Bassia scoparia) [5]; 125 g ai/ha) | Ragweed plant response rating (0 to 100 scale) ([8]; 500 g ai/ha) | Horseweed plant response rating (0 to 100 scale) ([17]; 500 g ai/ha) | Kochia plant response rating (0 to 100 scale) (kochia (Bassia scoparia) [18]; 125 g ai/ha) | Kochia plant response rating (0 to 100 scale) (kochia (Bassia scoparia) [18]; 500 g ai/ha) | Ragweed plant response rating (0 to 100 scale) ([21]; 500 g ai/ha) | Soybean plant response rating (0 to 100 scale) (soybean (Glycine max) [23]; 125 g ai/ha) | Soybean plant response rating (0 to 100 scale) (soybean (Glycine max) [23]; 500 g ai/ha)
60: Soybean plant response rating (0 to 100 scale) (soybean (Glycine max) [10]; 500 g ai/ha) | Horseweed plant response rating (0 to 100 scale) ([17]; 125 g ai/ha) | Ragweed plant response rating (0 to 100 scale) ([21]; 125 g ai/ha)
